Measurements published in BindingDB's records for doi:10.1016/j.bmc.2016.08.054 (National Institute of Public Health-National Institute of …, 2016).

Tests used:
[1] = target: Aminopeptidase N (Sus scrofa) (UniProt P15145); experiment: Inhibition of porcine kidney microsomal LAP using l-leucine-7-amido-4-methylcoumarin as substrate incubated for 60 mins measured every 3 mins by fluorescence assay
[2] = target: Aminopeptidase N (Sus scrofa) (UniProt P15145); experiment: Inhibition of porcine kidney microsomal LAP using l-leucine-7-amido-4-methylcoumarin as substrate incubated for 10 hrs measured every 6 mins by fluorescence assay

Chain of Aminopeptidase N (Sus scrofa) (P15145 whole entry, looked up): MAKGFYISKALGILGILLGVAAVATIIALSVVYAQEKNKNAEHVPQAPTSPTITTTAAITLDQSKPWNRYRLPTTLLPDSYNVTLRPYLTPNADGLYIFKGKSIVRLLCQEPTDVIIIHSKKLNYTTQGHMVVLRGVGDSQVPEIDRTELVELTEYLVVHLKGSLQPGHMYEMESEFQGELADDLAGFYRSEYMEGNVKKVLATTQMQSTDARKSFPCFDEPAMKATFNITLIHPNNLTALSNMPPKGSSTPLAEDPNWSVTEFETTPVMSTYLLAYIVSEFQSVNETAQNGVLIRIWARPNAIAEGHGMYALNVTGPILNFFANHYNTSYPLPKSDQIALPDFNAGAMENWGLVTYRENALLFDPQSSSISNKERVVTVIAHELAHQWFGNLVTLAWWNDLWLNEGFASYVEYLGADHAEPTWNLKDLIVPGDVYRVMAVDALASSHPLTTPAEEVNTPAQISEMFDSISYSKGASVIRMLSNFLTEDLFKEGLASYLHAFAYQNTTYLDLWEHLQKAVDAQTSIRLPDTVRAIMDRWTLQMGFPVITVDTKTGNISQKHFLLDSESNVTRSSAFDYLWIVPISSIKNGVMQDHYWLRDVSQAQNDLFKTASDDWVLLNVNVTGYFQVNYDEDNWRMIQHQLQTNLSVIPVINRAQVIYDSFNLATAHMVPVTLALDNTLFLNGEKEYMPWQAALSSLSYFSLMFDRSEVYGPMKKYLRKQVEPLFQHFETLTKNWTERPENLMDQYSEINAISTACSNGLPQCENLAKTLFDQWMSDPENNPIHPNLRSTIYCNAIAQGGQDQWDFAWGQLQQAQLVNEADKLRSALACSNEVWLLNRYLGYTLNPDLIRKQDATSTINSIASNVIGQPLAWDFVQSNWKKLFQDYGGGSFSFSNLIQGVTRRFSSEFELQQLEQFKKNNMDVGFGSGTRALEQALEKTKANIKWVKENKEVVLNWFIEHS

## O=C(O)C1Cc2cc(O)cc(O)c2C=N1 (configuration not stated)
[1]
  IC50: 379 µM

## O=C(O)C1CCc2cc(O)c(O)cc2C=N1 (configuration not stated)
[1]
  IC50: 163 µM

## O=C(O)C1Cc2cc(O)c(O)cc2C=N1 (configuration not stated)
[1]
  IC50: 111 µM

## O=C(O)C1Cc2cc(O)c(O)c(O)c2C=N1 (configuration not stated)
[1]
  IC50: 781 µM

## COc1cc2c(cc1OC)CCC(C(=O)OCc1ccccc1)(C(=O)OCc1ccccc1)N=C2
[1]
  IC50: 1050 µM

## CCOC(=O)C1(C(=O)OCC)Cc2cc(OCc3ccccc3)cc(OCc3ccccc3)c2C=N1
[2]
  IC50: 33.6 µM
[1]
  IC50: 16.5 µM

## O=C(O)C1Cc2cc(O)c(O)c(Br)c2C=N1 (configuration not stated)
[1]
  IC50: 68.3 µM

## O=C(O)C1Cc2cc(O)c(Br)c(O)c2C=N1 (configuration not stated)
[1]
  IC50: 76.8 µM

## O=C(O)C1Cc2c(O)c(O)cc(Br)c2C=N1 (configuration not stated)
[1]
  IC50: 409 µM

## O=C(O)C1Cc2cc(O)c(O)c(I)c2C=N1 (configuration not stated)
[1]
  IC50: 63.6 µM

## O=C(O)C1Cc2cc(O)c(I)cc2C=N1 (configuration not stated)
[1]
  IC50: 69.3 µM
